In patent US20230127202A1, “LONG-TERM PROBIOTIC BACTERIAL STORAGE AT AMBIENT TEMPERATURE” (CORNELL UNIVERSITY, priority 2021, published 2023):

Tested on: Lactobacillus rhamnosus GG (LGG, ATCC 53103)
Experiment: Bacterial survivability test (colony count) of LGG stored in food-grade oils at room temperature
Format: physicochemical
Conditions: under all conditions
Method: PBS at pH 7.4 was used as a control for each temperature. Each individual vial containing 20 mL of oil was heated to reach the desired temperature and the temperature equilibrated for 15-20 minutes. To each heated vial, 0.05 g of LGG powder was added. For prebiotic treatment, 0.05 g of inulin were added before the addition of LGG. The vial containing the oil-bacteria mixture was held at temperature for 1 minute with gentle stirring. Finally, the vial was taken out of the oil bath and cooled to room temperature over a range of 25 to 45 minutes depending on the heating treatments. As control samples, the LGG powder was added to each type of oil and PBS (pH 7.4) with the samples not heated. FIG. 1A illustrates the experimental set up for the heat treatment.
To prevent bacterial growth during storage of probiotics in aqueous solutions, oil was used as a barrier to water penetration and thus serves to preserve and prevent spoilage of the probiotic products. Before the storage of bacteria in oil, the LGG concentration in each type of oil was quantified and recorded as the initial concentration. […] The control medium was 20 mL of PBS at pH 7.4. For the control sample, 0.05 g of the bacteria were added to PBS and, after mixing, cultured on MRS agar plates. […] The survivability of the bacteria was assessed at specific time points over a year using the colony count technique. […]

Molecule | effect on survival rates of the bacteria
inulin | reduced the survival rates

Tested on: LGG isolates
Experiment: Antimicrobial susceptibility (MIC) test, Sensititre COMPGP1F gram-positive panel, CLSI interpretation
Format: cell-based, Lactobacillus rhamnosus GG
Conditions: all LGG isolates after heat treatment and storage
Method: Antimicrobial susceptibility or minimum inhibitory concentration (MIC) test was performed using the Sensititre® system COMPGP1F gram-positive systemic panel. The test used the Clinical and Laboratory Standards Institute (CLSI) guidelines for interpretation of MIC values. All of the isolates were examined for susceptibility to 23 antimicrobial agents included in the gram-positive panel of the National Antimicrobial Resistance Monitoring System (NARMS), including amikacin, ampicillin, augmentin, cefazolin, cefovecin, cefpodoxime, cephalothin, chloramphenicol, clindamycin, doxycycline, enrofloxacin, erythromycin, gentamicin, imipenem, marbofloxacin, minocycline, nitrofurantoin, oxacillin + 2% NaCl, penicillin, pradofloxacin, rifampin, tetracycline, trim/sulfa.

Molecule | antimicrobial sensitivity of the isolates (CLSI interpretation of MIC)
Cc1nnc(SCC2=C(C(=O)O)N3C(=O)[C@@H](NC(=O)Cn4cnnn4)[C@H]3SC2)s1 [cefazolin] | resistance
oxacillin [oxacillin + 2% NaCl] | susceptible
CC[C@H]1OC(=O)[C@H](C)[C@@H](O[C@H]2C[C@@](C)(OC)[C@@H](O)[C@H](C)O2)[C@H](C)[C@@H](O[C@@H]2O[C@H](C)C[C@H](N(C)C)[C@H]2O)[C@](C)(O)C[C@@H](C)C(=O)[C@H](C)[C@@H](O)[C@]1(C)O [erythromycin] | susceptible
augmentin | susceptible
penicillin | resistance
CC1(C)S[C@@H]2[C@H](NC(=O)[C@H](N)c3ccccc3)C(=O)N2[C@H]1C(=O)O [ampicillin] | intermediate sensitivity
